Experimental data from US20030165475A1, “Non-lethal methods for conditioning a recipient for bone marrow transplantation” (priority 1993, published 2003).
Several values for one entry are separate records, joined by “and”; a condition that tells them apart may be missing. Equal entries are not always repeated.

Assays:
[1] = tested on: C57BL/6J mice; conditions: C57BL/6J (n=6); 300 cGy TBI + 200 mg/kg CyP
Excerpt: Three to five week old C57BL/10-Cd4^tml(CD4-KO;H2^b, n=5), C57BL/6J-CD4^tm/mak (CD4-KO; H2^b, n=15) CD57BL/6JCD8α^tm/mak (CD8-KO; H2^b, n=16), C57BL/6J (B6; H2^b, n=6), C57BL/6-6d4^tm/mak (CD4-KO) and C57BL/6-Cd8^tm/mak (CD8-KO)recipient mice, as well as three to five week old B10.BR/SgSnJ (B10.BR, H2^k) donor mice were purchased from the Jackson Laboratory (Bar Harbor, Me.). Knock-out mice were housed in a special pathogen-free barrier facility, while donor mice were housed in a conventional barrier animal facility. Mice were cared for according to National Institute of Health animal care guidelines.
Bone marrow was prepared as previously described (Ildstad and Sachs, Nature, 307:168 (1984)). Briefly, B10.BR donor mice were euthanized and tibias and femurs harvested. Bone marrow was expelled from the bones with Media 199 (Gibco, Grand Island, N.Y.) containing 10 μg/ml Gentamicin (Gibco) (MEM). The cells were filtered through sterile nylon mesh with 100 μm pores, spun for minutes at 200×g and 4° C., and resuspended in MEM. A cell count was performed and the cells were diluted to a final concentration of 15×10^6 bone marrow cells per 1 ml of MEM.
CD4-KO and CD8-KO mice were treated with TBI from a cesium source (Gamma-cell 40, Nordion, Ontario, Canada). Doses from 0 to 300 cGy were administered according to the experimental groups. Animals were transplanted with 1 ml MEM containing 15×10^6 B10.BR bone marrow cells via lateral tail vein injection within 4 hours after irradiation.
Peripheral blood was obtained from the mice by tail-vein bleeding. The blood was collected in heparinized Eppendorf tubes 28 days, 3 months and 6 months after BMT. Fifty μl of whole blood were incubated for 7 minutes with 2 ml of lysing buffer (8.29 g of NH4Cl, 1.0 g of KHCO3 and 0.0372 g Na2EDTA in 1 liter H2O to lyse red blood cells. The cells were washed with 2 ml FACS medium (0.36 g NaHCO3, 1.0 g NaN3 and 1.0 g bovine serum albumin in 1 liter Hanks Balanced Salt Solution and spun at 200×g for 10 minutes at 4° C. After the supernatant was carefully decanted, cells were mixed with 10 μl diluted monoclonal antibodies (mAb; details discussed infra) and incubated for 30 minutes at 4° C. in the dark. The appropriate dilution for the use of the mAb was determined in titration experiments prior to use. After the incubation, the cells were washed twice with 2 ml of FACS medium and spun at 200×g for minutes at 4° C. Finally, the cells were fixed with 1% paraformaldehyde in PBS. The analyses were carried out on a FACS-Calibur (Becton Dickinson, Mountain View, Calif.) with CellQuest software (Becton Dickinson).
PBL were stained with mAb specific for MHC Class I antigens of donor (FITC conjugated anti-H2K^k, 36-7-5, mouse IgG1) and recipient (PE-conjugated anti-H2K^b, AF6-88.5, mouse IgG2a) origin to determine the percentage of donor chimerism. Multi-lineage engraftment was assessed by staining with biotinylated anti-H2K^k (36-7-5, mouse IgG1), FITC-conjugated anti-H2K^b (AF6-88.5, mouse IgG2a) and PE-conjugated lineage markers 3 months after BMT. The biotinylated antibody was recovered with Streptavidin-Allophycocyanin (SA-APC). The following antibodies were used as lineage markers: anti-GR-1 (RB6-8C5, rat IgG2^b); anti-MAC-1 (M1/70, rat IgG2^b); anti-CD4 (RM4-5, rat IgG2a); anti-CD8α (53-6.7, rat IgG2a); anti-B220 (RA3-6B2, rat IgG2a); anti-NK1.1 (PK136, mouse IgG2a); anti-TCR-β chain (H57-597, hamster IgG); and anti-γδ-TCR (GL3, hamster IgG). Non-specific background staining was controlled for by using isotype control antibodies directed against irrelevant antigens and conjugated with the same color as the experimental antibody (i.e., anti-TNP mouse IgG2a conjugated with PE served as isotype control for PE-conjugated anti-H2K^b mouse IgG2a). All mAb were obtained from PharMingen (San Diego, Calif.). SA-APC was purchased from Becton Dickinson (Mountain View, Calif.).

[2] = tested on: B10 mice; type: in vivo, mouse
Description: Briefly, peripheral blood was collected into heparinized plastic serum vials. […] (400g×20 minutes). […] Lymphocytes were stained for class I antigens with anti-H-2^b-FITC (Pharmingen; San Diego, Calif.), anti-H-2^k-FITC (Pharmingen), and anti-H-2^d-FITC (Pharmingen) monoclonal antibodies (Mab) for 45 minutes at 4° C. Lineage typing was performed by two color flow cytometry using anti-B-cell (B220-FITC, Pharmingen), anti-T cell (αβ-TCR-PE, CD4-FITC, CD8-PE, Pharmingen), anti-natural killer cell (NK1.1-PE, Pharmingen), anti-granulocyte (GR-1-FITC, Pharmingen), and anti-monocyte/macrophage (MAC-1-FITC, Boehringer Mannheim; Indianapolis, Id.) Mab. […] Analyses were performed using forward and side scatter characteristics for the lymphoid and myeloid gates.
To examine whether ALG would enhance the engraftment of allogeneic bone marrow in the established radiation-based model, recipient B10 mice received one of three conditioning approaches prior to transplantation with 40×10^6 or 15×10^6 BALB/c bone marrow cells: 70 mg/kg i.v. ALG given three,days prior to bone marrow transplantation (Group 1); 5Gy of TBI on the day of transplantation (Group 2); or both ALG and TBI as administered in groups 1 and 2 (Group 3). The timing of ALG was chosen to assure maximum immunosuppression at the time of allogeneic bone marrow infusion (Wood et al., 1971, Trans Proc 3(l):676). As in previous analysis, recipients were peripheral blood leukocyte (PBL)-typed for evidence of allogeneic engraftment 2 months following bone marrow transplantation.
To examine the influence of donor cell number on the ability of ALG and TBI to enhance alloengraftment, dose-titration studies were performed in which the above established radiation plus ALG conditioning were utilized. Recipients were conditioned as above prior to receiving 40×10^6, 15×10^6, or 5×10^6 BALB/c bone marrow cells.
Animals were PBL typed 2 months following reconstitution.
To examine the influence of timing of radiation on the engraftment of allogeneic bone marrow, recipient B10 mice were irradiated with 5Gy TBI one week prior to transplantation with 40×10^6 BALB/c allogeneic bone marrow cells.
B10 mice were treated with ALG at 2 mg/mouse i.v. at day −3 before bone marrow transplantation.

Structure (SMILES): O=P1(N(CCCl)CCCl)NCCCO1 (stereo not shown) [CyP, cyclophosphamide]
- % animals that engrafted [1]: 0%
- engraftment of allogeneic bone marrow ([2]; 5Gy TBI + CyP 200 mg/kg i.p. 2 days later, 40 × 10^6 B10.BR or BALB/c → B10, 2 months): nearly all recipients
- degree of donor chimerism ([2]; 5Gy TBI + CyP 200 mg/kg i.p. 2 days later, all chimeras): > 90%
- recipient mice engrafted ([2]; 5Gy TBI and CyP, regardless of donor strain or CyP before or shortly after TBI (n=15)): ~75%
- % BALB/c lymphoid cells ([2]; 5 Gy TBI-based regimen, BALB/c → B10, individual animals, flow cytometry, 2 months): 99% and 98% and 91% and 92%
- engraftment ([2]; CyP 200 mg/kg i.p. alone, no TBI): failed to engraft
- allogeneic donor chimerism ([2]; chimeras after 5Gy TBI and CyP): ≥ 90%
